{"source": "patent EP4431111A1", "about": "“PROBIOTIC AS VACCINE IMMUNOADJUVANT” (COREE S.r.l., priority 2023, dated 2024)", "test_system": "A549 cells", "assay": "Cytotoxicity, LDH-release assay on A549 cells", "format": "cell-based, human", "settings": "1% Triton X-100, 10 minutes at room temperature, positive control C+ set at 100%", "protocol": "The cytotoxicity of all the conditions tested was evaluated on A549 cells by the LDH activity assay. Cells were seeded in 96 well plate at a density of 3×10^4cells/well: they were leaved at 37°C for 24h and then they were co-cultured with S-protein alone or in the presence of aluminium-based adjuvant or heat-inactivated probiotic strains for 24h. At the end of this incubation period, the release of LDH in the supernatants was evaluated by commercial colorimetric kit following manufacturer's instruction. The control included medium alone used as blank. The spectrophotometric absorbance was measured at 450nm wavelength using a microplate reader.", "data": [{"substance": "Triton X-100", "values": [{"measurement": "release of LDH", "result": "maximal release of LDH"}]}]}
